Consider 10 compounds from publication PMC9115881, “Penicillin Derivatives Inhibit the SARS-CoV-2 Main Protease by Reaction with Its Nucleophilic Cysteine” (Journal of Medicinal Chemistry, 2022).

The IC50 is the concentration that gives 50% inhibition.

Experiment [1] has as its target T1, SARS-CoV-2 M^pro (Severe acute respiratory syndrome coronavirus 2, UniProt P0DTD1). As to the kind of experiment: SPE-MS M^pro inhibition assay, 11mer peptide substrate. Type of experiment: biochemical.
Experiment [2] addresses T1, SARS-CoV-2 M^pro. Particulars: earlier SPE-MS M^pro assay; cited from earlier work.
Experiment [3] has as its target T1, SARS-CoV-2 M^pro. The experiment in a line: biochemical. The format is biochemical. Particulars: for IC50: 37mer substrate 2.0 μM, mean ± SD, n ≥ 2, read-out: IC50.
Experiment [4] concerns the target T2, active site (Cys145) TPCK-blocked M^pro (Severe acute respiratory syndrome coronavirus 2, UniProt P0DTD1).
T2 construct: employing SARS-CoV-2 M^pro (2.0 μM); made in house
The experiment in a line: Protein-observed M^pro assay after preincubation with TPCK. Particulars: M^pro 2.0 μM preincubated with TPCK 10 μM for 180 min, then inhibitor 60 min. The format is binding, SARS-CoV-2.

In experiment [5] the target is T1, SARS-CoV-2 M^pro. The experiment in a line: Protein-observed M^pro assay (SPE-MS), covalent modification. The format is binding. Particulars: M^pro 2.0 μM, inhibitor 11 or 33 μM, 45 min. As for the experimental part:
Selected compounds were tested for reaction with M^pro using protein-observed MS to inform on their mechanism of inhibition (Figure 2). Initially, M^pro was incubated with a ∼6-fold excess of the penicillin sulfone ester for 45 min and then analyzed by MS. […] When the inhibitor concentration was increased to ∼17-fold to account for the possibility of modifying all 12 M^pro cysteine or other residues, only low levels of a second covalent M^pro modification by the inhibitors were observed (Figure 2A–C). No evidence for fragmentation of the inhibitors once bound to M^pro was accrued.
Solutions of the inhibitors (100% DMSO) were dry-dispensed across 384-well polypropylene assay plates (Greiner) (for 11 or 33 μM top concentrations) using an ECHO 550 acoustic dispenser (Labcyte). DMSO was used as a negative control. Each reaction was performed in technical duplicates. The enzyme mixture (50 μL/well), containing M^pro (2.0 μM) in buffer (20 mM HEPES, pH 7.5), was dispensed across the penicillin-containing 384-well assay plates with a multidrop dispenser (Thermo Fischer Scientific). The reaction mixture was incubated for 45 min at 20 °C under an ambient atmosphere prior to analysis by SPE-MS.
MS analyses were performed using a RapidFire RF 365 high-throughput sampling robot (Agilent) attached to an iFunnel Agilent 6550 accurate mass Q-TOF mass spectrometer using a C4 cartridge and the same parameters as described above, with the exception of the gas temperature that was reduced to 225 °C. Protein spectra were deconvoluted for the m/z range 850–1350 Da, with a resolution of 2 Da and with a 10–60 kDa cutoff using the MaxEnt1 function in Agilent MassHunter Version 7. The deconvoluted files were extracted as csv files, sorted using Enthought Canopy GUI, and normalized and plotted using GraphPad Prism 9.

Experiment [6] deals with T1, SARS-CoV-2 M^pro. As to the kind of experiment: Cocrystallization with M^pro, crystal structure. Particulars: 2.0 Å resolution, PDB 7Z59. The text has this: To investigate the mode of M^pro inhibition by penicillin derivatives, we carried out crystallographic studies and obtained a structure of M^pro complexed with a penicillin sulfone 20e-derived ligand following cocrystallization (C2 space group, 2.0 Å resolution; Supporting Information Figure S7). The structure was solved by molecular replacement using a reported M^pro structure (PDB ID: 6YB7([29])) as a search model. The overall fold of the structure is similar to those previously reported for M^pro (RMSD = 0.41 Å for M^pro complexed with PF-07321332 (8, nirmatrelvir; PDB ID: 7VH8);[68] Supporting Information Figure S7).
A frozen SARS-CoV-2 M^pro solution was thawed and diluted to 6 mg/mL (using 20 mM HEPES, pH 7.5, 50 mM NaCl). β-Lactam 20e was added to the protein solution to a final concentration of 10 mM; the mixture was incubated for 2 h at ambient temperature prior to dispensing the plates. The drop composition was: 0.15 μL protein–ligand solution, 0.3 μL 11%v/v PEG 4000, 0.1 M MES, pH 6.5, and 0.05 μL M^pro crystal seed stock. A M^pro crystal seed stock was prepared by crushing M^pro crystals with a pipette tip, suspending them in 30% PEG 4000, 5%v/v DMSO, 0.1 M MES pH 6.5, and vortexing for 60 s with approximately 10 glass beads (1.0 mm diameter, BioSpec products). The reservoir solution was: 11%v/v PEG 4K, 5%v/v DMSO, 0.1 M MES, pH 6.5. […]

The mark [7] stands for this setting: Table 1, compounds 15, 16: 11mer peptide as substrate, M^pro […], substrate 2.0 μM, read-out: IC50.
[8] abbreviates: Table 3, compounds 25c, 25g: 11mer peptide as substrate, M^pro […], substrate 2.0 μM, read-out: IC50.

“Also recorded” adds a separate entry of the source.

Consider `CC1(C)[C@H](C(=O)OCc2ccccc2)N2C(=O)[C@@H](NC(=O)COc3ccccc3)[C@H]2S1(=O)=O` [Compound 10, penicillin V sulfone benzyl ester], for which the IC50 at SARS-CoV-2 M^pro [1] (Table S1, M^pro 0.15 μM, TSAVLQ/SGFRK-NH2 2.0 μM, technical duplicates n = 2, mean ± SD, read-out: IC50 [μM] (11mer peptide)) came to 8.7 ± 0.2 µM; at SARS-CoV-2 M^pro [3] (Table 1, M^pro […], 15 min preincubation) it was 6.6 ± 2.7 µM; at SARS-CoV-2 M^pro [3] (Table 3, M^pro […]), 6.6 ± 2.7 µM. Further, the “M^pro inhibition, reported result in words” value at SARS-CoV-2 M^pro [2] is listed as “inhibits M^pro by reaction with the active site cysteine residue”. In addition, the “covalent reaction with TPCK-pretreated M^pro by protein-observed MS” value in experiment [4] is recorded as “reaction is ablated by pretreatment of M^pro with the active site binding inhibitor TPCK; also recorded: do not efficiently react covalently”. For the same compound, the “covalent modification of M^pro by protein-observed MS” value (shortened to “covalent modification of M^pro”) at SARS-CoV-2 M^pro [5] is “covalent reaction with Cys145; also recorded: covalent reaction with a single nucleophilic protein residue; also recorded: clear evidence for the covalent reaction”.
As to `CC1(C)[C@H](C(=O)OCc2ccccc2)N2C(=O)[C@@H](NC(=O)Cc3ccccc3)[C@H]2S1(=O)=O` [Compound 11, penicillin G sulfone benzyl ester], on SARS-CoV-2 M^pro [2], the “M^pro inhibition, reported result in words” value was “inactive”. In addition, the “M^pro inhibition, result in words” value on SARS-CoV-2 M^pro [3] (SPE-MS inhibition assay) was “did not inhibit M^pro”. Further, the concentration for half-maximal inhibition (IC50) on SARS-CoV-2 M^pro [3] (Table 3, M^pro […]) was above 50 µM.
Turning to `CC1(C)[C@H](C(=O)OCc2ccccc2)N2C(=O)[C@H](NC(=O)COc3ccccc3)[C@H]2[S@@+]1[O-]` [Compound 15, (6S)-penicillin V (S)-sulfoxide benzyl ester], the IC50 at SARS-CoV-2 M^pro [1] (setting [7]) is above 50 µM.
Still for that read-out and setting: the value for `CC1(C)[C@H](C(=O)OCc2ccccc2)N2C(=O)[C@H](NC(=O)COc3ccccc3)[C@H]2S1(=O)=O` [Compound 16, (6S)-penicillin V sulfone benzyl ester] was above 50 µM.
In the case of `CC1(C)[C@H](C(=O)OCc2ccc(F)cc2F)N2C(=O)[C@@H](NC(=O)COc3ccccc3)[C@H]2S1(=O)=O` [Compound 20e], the “covalent modification seen in the crystal structure” value on SARS-CoV-2 M^pro [6] is on record as “active site Cys145 S-acylation”.
Consider `C#CCOC(=O)[C@@H]1N2C(=O)[C@@H](NC(=O)COc3ccccc3)[C@H]2S(=O)(=O)C1(C)C` [Compound 20q], for which, at SARS-CoV-2 M^pro [3] (Table 2, M^pro […]), the concentration for half-maximal inhibition (IC50) amounted to 3 ± 0.4 µM. For the same compound, in experiment [4], the “covalent reaction with TPCK-pretreated M^pro by protein-observed MS” value is “reaction is ablated by pretreatment of M^pro with the active site binding inhibitor TPCK; also recorded: do not efficiently react covalently”. In addition, at SARS-CoV-2 M^pro [5], the “covalent modification of M^pro” value is given as “covalent reaction with Cys145; also recorded: covalent reaction with a single nucleophilic protein residue; also recorded: clear evidence for the covalent reaction”.
For `Cc1onc(-c2c(Cl)cccc2Cl)c1C(=O)N[C@@H]1C(=O)N2[C@@H](C(=O)OCc3ccccc3)C(C)(C)S(=O)(=O)[C@H]12` [Compound 25c], the IC50 on SARS-CoV-2 M^pro [1] (setting [8]) is above 50 µM.
Turning to `CCN1CCC(NC(=O)N[C@@H](C(=O)N[C@@H]2C(=O)N3[C@@H](C(=O)OCc4ccccc4)C(C)(C)S(=O)(=O)[C@H]23)c2ccccc2)C(=O)C1=O` (some centres unmarked) [Compound 25g], the IC50 on SARS-CoV-2 M^pro [1] (setting [8]) is above 50 µM.
For the compound `CC1(C)[C@H](C(=O)OCc2ccc([N+](=O)[O-])cc2)N2C(=O)C(Br)(Br)[C@H]2[S+]1[O-]` (stereo partly drawn) [Compound 32, 6,6-dibromopenicillaic acid (R)-sulfoxide para-nitrobenzyl ester], at SARS-CoV-2 M^pro [3] (Table 4, M^pro 0.15 μM), the IC50 is around 0.6 µM. Besides, on SARS-CoV-2 M^pro [5], the “covalent modification of M^pro” value was “initial covalent M^pro binding is followed by rapid subsequent reaction to give new species”.
Take `CC1(C)[C@H](C(=O)O)N2C(=O)C[C@H]2S1(=O)=O` [Compound 33, sulbactam, reference compound]: the “M^pro inhibition, reported result in words” value on SARS-CoV-2 M^pro [2] is “inability of sulbactam to inhibit M^pro”.
